Experiment [1] concerns the target T1, human 5-HT2A serotonin receptor (Homo sapiens, UniProt P28223).
T1 construct: expressed in transfected cells; host or cells: HEK-293 EBNA cells (transient transfection; membrane preparation)
Put plainly: Radioligand binding to cloned human 5-HT2A receptor ([3H]-ketanserin). Particulars: second value of D3/5HT2A/D2; membranes of transfected HEK-293 EBNA cells, 1.1 nM [3H]-ketanserin, 1 h at RT. Here is the method: (§1) The ability of compounds of the present invention to bind to the 5-HT2A, D3 and D2 receptors was determined using radioligand binding to cloned receptors selectively expressed in HEK-293 EBNA cells.
(§2) Membrane Preparation for Human D2, Human D3 and Human 5-HT2A Receptors
(§3) HEK-293 EBNA cells were transiently transfected with expression plasmids encoding for the human D2 or D3 dopamine- or for the human 5-HT2A serotonin receptor, respectively. The cells were harvested 48 hours post-transfection, washed three times with cold phosphate buffered saline (PBS) and stored at −80° C. prior to use. The pellet was suspended in cold 50 mM Tris-HCl buffer containing 10 mM EDTA (pH 7.4) and homogenized with a Polytron (Kinematica AG, Basel, Switzerland) for 20-30 seconds at 12.000 rpm. After centrifugation at 48.000×g for 30 minutes at 4° C., the pellet was resuspended in cold 10 mM Tris-HCl buffer containing 0.1 mM EDTA (pH 7.4), homogenized, and centrifuged as above. This pellet was further resuspended in a smaller volume of ice cold 10 mM Tris-HCl buffer containing 0.1 mM EDTA (pH 7.4) and homogenized with a Polytron for 20-30 sec at 12.000 rpm. The protein content of this homogenate was determined with the Bio-Rad (Bradford) Protein Assay (Biorad Laboratories GmbH, München, Germany) according to the instructions of the manufacturer using gamma globulin as the standard. This homogenate was stored at −80° C. in aliquots and thawed immediately prior to use.
(§4) Radioligand Binding Assay Conditions
(§5) Aliquots of membrane preparations were thawed at room temperature, resuspended in assay buffer (D2, D3: 50 mM Tris-HCl, 120 mM NaCl, 5 mM MgCl2, 1 mM EDTA, 5 mM KCl, 1.5 mM CaCl2, pH=7.4; 5-HT2A: 50 mM Tris-HCl, 10 mM MgCl2, 1 mM EGTA, pH=7.4), homogenized with a Polytron for 20-30 seconds at 12.000 rpm and adjusted to a final concentration of approximately 7.5 μg protein/well (D2, D3) and 15 μg protein/well (5-HT2A), respectively.
(§6) The binding affinity (Ki) of the compounds was determined using radioligand binding. Membranes were incubated in a total volume of 200 μl with a fixed concentration of radioligand (final concentration approximately 0.7 nM [^3H]-spiperone for D2, 0.5 nM [^3H]-spiperone for D3, and 1.1 nM [^3H]-ketanserin for 5-HT2A) and ten concentrations of test compound ranging between 10 μM-0.1 nM for 1 h at RT. At the end of the incubation, the reaction mixtures were filtered on to unifilter 96-well white microplates with bonded GF/C filters (Packard BioScience, Zudrich, Switzerland; preincubated for 1 h in 0.1% polyethylenimine (PEI) in assay buffer) with a Filtermate 196 harvester (Packard BioScience) and washed 3 times with cold assay buffer. The nonspecific binding was determined with equally composed reaction mixtures in the presence of 10 μM unlabelled spiperone. Per well 45 μl of Microscint 40 (Perkin Elmer, Schwerzenbach, Switzerland) was added, plates for sealed, shaken for 20 min and counted for 3 minutes on a Topcount Microplate Scintillation Counter (Can berra Packard SA, Zu-rich, Switzerland) with quenching correction.
(§7) The CPM value for each duplicate of a concentration of competing compound was averaged (y1), then the % specific binding was calculated according to the equation (((y1−non-specific)/(total binding-non-specific))×100). Graphs were plotted with the % specific binding using XLfit, a curve fitting program that iteratively plots the data using Levenburg Marquardt algorithm. The single site competition analysis equation used was y=A+((B−A)/(1+((x/C)^D))), where y is the % specific binding, A is the minimum y, B is the maximum y, C is the IC50, x is the log10 of the concentration of the competing compound and D is the slope of the curve (the Hill Coefficient). From these curves the IC50 (inhibition concentration at which 50% specific binding of the radioligand was displaced) and Hill coefficient were determined. […]

Experiment [2] concerns the target T2, human D3 dopamine receptor (Homo sapiens, UniProt P35462).
T2 construct: expressed in transfected cells; host or cells: HEK-293 EBNA cells (transient transfection; membrane preparation)
Put plainly: Radioligand binding to cloned human D3 receptor ([3H]-spiperone). To be noted: first value of D3/5HT2A/D2; membranes of transfected HEK-293 EBNA cells, 0.5 nM [3H]-spiperone, 1 h at RT. Here is the method: as §1, §2, §3, §4, §5, §6, §7

The target in experiment [3] is T3, human D2 dopamine receptor (Homo sapiens, UniProt P14416).
T3 construct: expressed in transfected cells; host or cells: HEK-293 EBNA cells (transient transfection; membrane preparation)
The experiment is described as follows: Radioligand binding to cloned human D2 receptor ([3H]-spiperone). To be noted: third value of D3/5HT2A/D2; membranes of transfected HEK-293 EBNA cells, 0.7 nM [3H]-spiperone, 1 h at RT. Here is the method:
as §1, §2, §3, §4, §5, §6, §7

From patent US7795437B2, “Ether derivatives” (Hoffmann-La Roche Inc., priority 2006, dated 2010) come the findings set out here.

T1 sequence (P28223 whole entry): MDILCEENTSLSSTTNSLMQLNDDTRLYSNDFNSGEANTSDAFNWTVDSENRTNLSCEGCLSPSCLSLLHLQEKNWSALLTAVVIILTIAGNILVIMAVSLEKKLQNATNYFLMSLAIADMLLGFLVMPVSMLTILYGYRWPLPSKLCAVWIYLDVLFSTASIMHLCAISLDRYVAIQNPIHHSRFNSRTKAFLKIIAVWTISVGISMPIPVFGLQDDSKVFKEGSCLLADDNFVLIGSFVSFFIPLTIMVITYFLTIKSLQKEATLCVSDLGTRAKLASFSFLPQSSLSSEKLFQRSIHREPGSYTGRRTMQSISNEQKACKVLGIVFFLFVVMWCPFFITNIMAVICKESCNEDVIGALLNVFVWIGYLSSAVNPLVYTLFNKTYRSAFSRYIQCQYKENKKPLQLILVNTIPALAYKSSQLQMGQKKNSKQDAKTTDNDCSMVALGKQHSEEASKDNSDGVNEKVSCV
T2 sequence (P35462 whole entry): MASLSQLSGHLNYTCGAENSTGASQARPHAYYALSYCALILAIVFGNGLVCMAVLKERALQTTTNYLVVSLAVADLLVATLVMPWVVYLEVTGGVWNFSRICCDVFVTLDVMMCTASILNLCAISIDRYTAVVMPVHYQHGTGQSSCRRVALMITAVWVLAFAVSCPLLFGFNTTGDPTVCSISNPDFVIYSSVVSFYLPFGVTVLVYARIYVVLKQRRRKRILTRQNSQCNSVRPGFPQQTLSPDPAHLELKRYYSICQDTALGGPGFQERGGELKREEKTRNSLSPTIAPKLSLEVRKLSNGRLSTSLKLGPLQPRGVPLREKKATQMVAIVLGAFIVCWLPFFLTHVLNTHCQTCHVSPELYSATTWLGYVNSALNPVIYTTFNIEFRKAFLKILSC
T3 sequence (P14416 whole entry): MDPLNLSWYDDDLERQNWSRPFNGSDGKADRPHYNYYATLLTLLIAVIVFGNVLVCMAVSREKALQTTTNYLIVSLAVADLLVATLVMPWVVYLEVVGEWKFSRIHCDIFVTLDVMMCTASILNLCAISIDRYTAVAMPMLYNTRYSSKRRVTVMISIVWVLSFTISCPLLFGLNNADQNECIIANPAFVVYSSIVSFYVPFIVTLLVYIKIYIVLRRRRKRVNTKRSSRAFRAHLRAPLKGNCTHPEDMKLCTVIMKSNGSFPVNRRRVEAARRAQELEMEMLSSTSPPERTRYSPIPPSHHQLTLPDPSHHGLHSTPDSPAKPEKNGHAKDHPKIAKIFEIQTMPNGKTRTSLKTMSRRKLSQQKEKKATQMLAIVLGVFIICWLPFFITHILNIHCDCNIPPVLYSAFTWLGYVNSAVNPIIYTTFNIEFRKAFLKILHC

Regarding `COCCC(=O)N[C@H]1CC[C@H](CCN2CCC(Oc3ccc(F)cc3)CC2)CC1` [Example 3, N-(trans-4-{2-[4-(4-Fluoro-phenoxy)-piperidin-1-yl]-ethyl}-cyclohexyl)-3-methoxy-propionamide], the Ki (as a rule, a measure of affinity in units of concentration, obtained from inhibition or displacement) in experiment [1] came to 22 nM; in experiment [2], 48 nM; in experiment [3], 1470 nM.
For `CC(=O)N[C@H]1CC[C@H](CCN2CCC(Oc3ccc(F)cc3)CC2)CC1` [Example 8, Trans N-(4-{2-[4-(4-Fluoro-phenoxy)-piperidin-1-yl]-ethyl}-cyclohexyl)-acetamide] the same measures were 31 nM, 50 nM and 843 nM.
The corresponding values for `O=C(Nc1ccc(Cl)cc1)N[C@H]1CC[C@H](CCN2CCC(Oc3ccc(F)cc3)CC2)CC1` [Example 9, Trans-1-(4-Chloro-phenyl)-3-(4-{2-[4-(4-fluoro-phenoxy)-piperidin-1-yl]-ethyl}-cyclohexyl)-urea] are 13 nM, 14 nM and 574 nM.
`Cc1ccc(NC(=O)N[C@H]2CC[C@H](CCN3CCC(Oc4ccc(F)cc4)CC3)CC2)cc1` [Example 10, Trans-1-(4-{2-[4-(4-Fluoro-phenoxy)-piperidin-1-yl]-ethyl}-cyclohexyl)-3-p-tolyl-urea]: the values for the Ki in experiment [1], in experiment [2] and in experiment [3] were 22 nM, 16 nM and 592 nM, respectively.
For `O=C(N[C@H]1CC[C@H](CCN2CCC(Oc3ccc(F)cc3Cl)CC2)CC1)c1ccnc2ccccc12` [Example 11, Quinoline-4-carboxylic acid trans(4-{2[4-(2-chloro-4-fluoro-phenoxy)-piperidin-1-yl]-ethyl}-cyclohexyl)-amide] the same measures were 2 nM, 17 nM and 321 nM.
The corresponding values for `COCCC(=O)N[C@H]1CC[C@H](CCN2CCC(Oc3ccc(F)cc3Cl)CC2)CC1` [Example 13, N-trans (4-{2-[4-(2-Chloro-4-fluoro-phenoxy)-piperidin-1-yl]-ethyl}-cyclohexyl)-3-methoxy-propionamide] are 3 nM, 14 nM and 790 nM.
The corresponding values for `O=C(N[C@H]1CC[C@H](CCN2CCC(Oc3ccc(F)cc3Cl)CC2)CC1)C1CCOCC1` [Example 15, Tetrahydro-pyran-4-carboxylic acid trans (4-{2-[4-(2-chloro-4-fluoro-phenoxy)-piperidin-1-yl]-ethyl}-cyclohexyl)-amide] are 2 nM, 17 nM and 556 nM.
`Cc1nc(-c2cccc(C(=O)N[C@H]3CC[C@H](CCN4CCC(Oc5ccc(F)cc5Cl)CC4)CC3)c2)no1` [Example 16, N-trans (4-{2-[4-(2-Chloro-4-fluoro-phenoxy)-piperidin-1-yl]-ethyl}-cyclohexyl)-3-(5-methyl-[1,2,4]oxadiazol-3-yl)-benzamide]: the Ki in experiment [1] is 5 nM; in experiment [2], 11 nM; in experiment [3], 553 nM.
As for `CCC(=O)N[C@H]1CC[C@H](CCN2CCC(Oc3ccc(F)cc3Cl)CC2)CC1` [Example 18, N-trans (4-{2-[4-(2-Chloro-4-fluoro-phenoxy)-piperidin-1-yl]-ethyl}-cyclohexyl)-propionamide], the Ki worked out at 2 nM in experiment [1], 5 nM in experiment [2] and 604 nM in experiment [3].
For `CC(=O)N[C@H]1CC[C@H](CCN2CCC(Oc3ccc(F)cc3Cl)CC2)CC1` [Example 19, N-trans(4-{2-[4-(2-Chloro-4-fluoro-phenoxy)-piperidin-1-yl]-ethyl}-cyclohexyl)-acetamide] the same measures were 3 nM, 12 nM and 683 nM.
For `Cc1ccc(NC(=O)N[C@H]2CC[C@H](CCN3CCC(Oc4ccc(F)cc4Cl)CC3)CC2)cc1` [Example 21, 1-trans(4-{2-[4-(2-Chloro-4-fluoro-phenoxy)-piperidin-1-yl]-ethyl}-cyclohexyl)-3-p-tolyl-urea] the same measures were 2 nM, 3 nM and 697 nM.
In the case of `O=C(N[C@H]1CC[C@H](CCN2CCC(Oc3ccc(F)cc3F)CC2)CC1)c1ccnc2ccccc12` [Example 24, Quinoline-4-carboxylic acid trans(4-{2-[4-(2,4-difluoro-phenoxy)-piperidin-1-yl]-ethyl}-cyclohexyl)-amide], the Ki in experiment [1] stood at 3 nM; in experiment [2] it was 8 nM; in experiment [3] it was 453 nM.
As for `O=C(N[C@H]1CC[C@H](CCN2CCC(Oc3cc(F)c(F)cc3F)CC2)CC1)C1CCOCC1` [Example 51, Tetrahydro-pyran-4-carboxylic acid trans(4-{2-[4-(2,4,5-trifluoro-phenoxy)-piperidin-1-yl]-ethyl}-cyclohexyl)-amide], the figures for the Ki in experiment [1], in experiment [2] and in experiment [3] were 36 nM, 29 nM and 638 nM, respectively.
For `CC(=O)N[C@H]1CC[C@H](CCN2CCC(Oc3ccc(Cl)cc3C#N)CC2)CC1` [Example 62, N-trans-(4-{2-[4-(4-Chloro-2-cyano-Phenoxy)-piperidin-1-yl]-ethyl}-cyclohexyl)-acetamide] the same measures were 43 nM, 100 nM and 3320 nM.
The corresponding values for `O=C(N[C@H]1CC[C@H](CCN2CCC(Oc3cccc(Cl)c3Cl)CC2)CC1)c1ccnc2ccccc12` [Example 72, Quinoline-4-carboxylic acid trans(4-{2-[4-(2,3-dichloro-phenoxy)-piperidin-1-yl]-ethyl}-cyclohexyl)-amide] are 9 nM, 5 nM and 319 nM.
The corresponding values for `O=C(N[C@H]1CC[C@H](CCN2CCC(Oc3ccncc3)CC2)CC1)c1ccnc2ccccc12` [Example 74, Quinoline-4-carboxylic acid (trans-4-{2-[4-(Pyridin-4-yloxy)-piperidin-1-yl]-ethyl}-cyclohexyl)-amide] are 60 nM, 208 nM and 3000 nM.
